Like-named read-outs stand apart in the source and are kept apart here.
Legend:
[1] = Ultraviolet spectroscopy in methanol solutions; format: physicochemical; conditions: for Absorption Range: scan range 290–400 nm
Protocol: Spectra with a scan range of 290–400 nm were recorded in 50 or 25 μM methanol solutions, in 1 cm path length, 1.5 mL quartz cuvettes on a U-2800 double beam spectrophotometer (Hitachi, Tokyo, Japan) controlled by UV Solution version 2.2 software. The molar extinction coefficient at maximum absorption (εmax) of tested compounds was determined in methanol as the slope of the linear regression of absorbance vs. concentration of tested compound (from 10 to 50 μM or 2.5 to 30 μM).

[2] = In vitro photoprotection study of 2% (w/w) macrogol formulations on PMMA plates
From the text: The composition of formulations and concentration of tested compounds were based on their limited solubility. N-monosubstituted compounds 2a–2e were insoluble at desirable concentrations in the typical solvents used in cosmetic formulations such as alcohols, triacetin, surfactants, and co-surfactants. To dissolve compounds 2a and 2b before incorporation to the formulation DMSO: Tween 20 (1:9 w/w) was used, for less soluble 2c–2e it was necessary to use DMSO alone as solvent. […] Thus the detailed composition of the formulations is as follows: F1–Tween 20 43.2%, PEG-400 25%, PEG-1500 25%, Triacetin 4.8%, tested compound 2%; F2–Tween 20 43.2%, PEG-400 25%, PEG-1500 25%, DMSO 4.8%, tested compound 2%; F3–PEG-400 25%, PEG-1500 25%, DMSO 48%, tested compound 2%. Considering the disadvantages of currently reported macrogol formulations and the low concentration achieved for the tested compounds (2%), we plan to work on cosmetic emulsions containing the most promising derivatives at higher concentrations as well as required excipients including preservatives, antioxidants, etc. This research will be carried out in the near future.
Tested compounds and commercial UV filters as reference standards were incorporated to a neutral macrogel formulation in the concentration of 2%. Prior to the incorporation, compounds 3a–3e and 4f–4h and reference UV-filters were dissolved in a triacetin:Tween 20 (1:9) solvent system. For compounds 2a–2e it was necessary to use DMSO. The final composition of the macrogol formulations is presented in the photoprotective activity section.
In vitro photoprotection study was performed according to EN ISO 24443:2012 [71] with slight modifications. Formulation with tested compound (32.5 mg) was applied on a polymethylmethacrylate plate (PMMA) with the application area 25 cm^2 and 5 µm roughness value to simulate the skin surface (Schonberg GmbH, Hamburg, Germany). As a reference a PMMA plate treated with approximately 15 µL of glycerin was used. Measurements were carried out by reflectance spectrophotometry with SPF-290AS Analyser (Solar Light Company, Glenside, PA, USA) equipped with integrating sphere controlled by WinSPF version X.X. software. For each sample two plates were prepared, absorbance measures were performed on 6 different positions of the plate from 290 to 400 nm with 1 nm steps. The results were expressed as an average of data from 12 scans.

[3] = Photostability in methanol solutions (solar light simulator); format: physicochemical; set-up: λmax pre-irradiation: unit not given beside the values; conditions: methanol solution; for % of initial AUC post-irradiation / λmax post-irradiation: 1h irradiation at 500 W/m2
Protocol: (§1) The photostability evaluation of compounds was performed both in methanol solutions and in macrogol formulations. Irradiation of samples according to previous studies was conducted for 1 h at 500 W/m^2 (cumulative dose of ultraviolet radiation 218 kJ/m^2) with solar light simulator (Suntest CPS+, Atlas, Linsengericht, Germany) equipped with an optical filter cutting off wavelengths shorter than 290 nm and IR-block filter to neutralize thermal effects. The UV absorption spectrum of the samples were analysed post-irradiation and compared with pre-irradiation results. UPLC-MS/MS analyses were also performed.
(§2) Methanol solutions were tested at concentration 25 or 50 µM in quartz cuvettes with the PTFE stopper to prevent evaporation or leaking of the solvent. Macrogol formulations (2% w/w) were tested on PMMA plates (1.3 mg/cm^2). After post-irradiation measure of UV absorption, exposed and unexposed plates were washed with 5 mL of methanol, then mixtures were filtered and analysed by UPLC-MS/MS. All analyses were performed in duplicates.

[4] = Photostability in macrogol formulations on PMMA plates (solar light simulator); format: physicochemical; conditions: for decrease of AUC after irradiation: macrogol formulation F1; for percentage of photoproducts content: post-irradiation chromatograms; for new photoproduct (besides photoisomer), relative peak area: post-irradiation chromatogram
Protocol: After irradiation of thin layer of formulations applied on PMMA plates, their photoprotective parameters were determined and compared with the pre-irradiation results. The study gives an overview on functional photostability of the tested compounds. It is an important test, because the photostability of some compounds in low concentrated solutions may meaningfully differ from results obtained for higher concentrations used in sunscreen products. […] In the present study both UVB and UVA-absorbers were tested, so the changes in SPFin vitro, UVA PF and AUC after irradiation are taken into account as a measure of photostability.
as §1, §2

[5] = In vitro stability in mouse liver microsomes; format: in vitro ADME; conditions: mouse, mouse liver microsomes
Protocol: Mouse liver microsomes (MLMs) were used to investigate the phase I metabolism of selected compounds (2c, 2d, 3b, 4g, 5a) and the reference substance BP-2. Samples composed of test compound (20 µM), MLMs (0.8 mg/mL) and potassium phosphate buffer (100 mM, pH 7.4) were preincubated prior to addition of NADPH-regenerating system. NADPH-regenerating system contained NADP, glucose-6-phosphate, glucose-6-phosphate dehydrogenase and potassium phosphate buffer (100 mM, pH 7.4). Control incubations were performed in the absence of the NADPH-regenerating system and in case of esters (2c, 2d, 3b and 4g) without the mouse liver microsomes solution to determine spontaneous hydrolysis. Incubations were conducted at 37 °C for at least 15 min up to 60 min. The reactions were stopped by the addition of 250 μL ice-cold methanol containing internal standard PTX (20 μM). The mixture was then centrifuged. Supernatant analysis was performed using UPLC/MS (Waters Corporation). The assays were repeated two times. The in vitro half times (t1/2) for test compounds were determined from the slope of the linear regression of ln % parent compound remaining versus incubation time. The calculated t1/2 was incorporated into the following equation to obtain intrinsic clearance: (Clint) = (volume of incubation [µL]/ protein in the incubation [mg]) × 0.693 / t1/2 [74].

[6] = 2% (w/w) macrogol formulation F1 (Triacetin 4.8%)
[7] = 2% (w/w) macrogol formulation F1 (Tween 20, PEG-400, PEG-1500, Triacetin 4.8%)
[8] = after 1 h irradiation at 500 W/m^2, formulation F1
[9] = 2% (w/w) macrogol formulation F2 (DMSO 4.8%)
[10] = after 1 h irradiation at 500 W/m^2, formulation F2 (DMSO 4.8%)
[11] = after 1 h irradiation at 500 W/m^2, formulation F3 (DMSO 48%)

Row | εmax [1] [M⁻¹ cm⁻¹] | λmax [1] [nm] | Absorption Range [1] | λmax pre-irradiation [3] | % of initial AUC post-irradiation [3] [%] | λmax post-irradiation [3] | % of Initial AUC [4, 8] [%] | % of Initial SPFin vitro [4, 8] [%] | % of Initial UVA PF [4, 8] [%] | melting point [°C] | Compound | UVA PF [2, 6] | UVA/UVB Ratio [2, 6] | λc (critical wavelength) [2, 6] [nm] | SPFin vitro [2, 7] | also measured
1 | 41477 | 354 | 295–389 nm | 354 | 59.12 | 354 | 27.92 | 62.24 | 25.98 | 99 to 100 | CCOC(=O)CN1C(=O)/C(=C/C=C/c2ccccc2)N(CC(=O)OCC)C1=O [Compound 4f, Diethyl 2,2′-((Z)-2,4-dioxo-5-((E)-3-phenylallylidene)imidazolidyne-1,3-diyl)diacetate] | 8.43 ± 1.35 | 2.58 ± 0.06 | 381 | 2.51 ± 0.17 | decrease of AUC after irradiation [3]: 40.9%; photostability (in words) ([4]; macrogol formulation): unsatisfactory; decrease of AUC after irradiation [4]: 72.1%; percentage of photoproducts content ([4]; macrogol formulation): 22.9%
2 | 34987 | 370 | 290–400 nm | 370 | 98.55 | 370 | 69.19 | 82.22 | 62.38 | 134 to 135 | CCOC(=O)CN1C(=O)/C(=C/C=C/c2ccccc2OC)N(CC(=O)OCC)C1=O [Compound 4h, Diethyl 2,2′-((Z)-4-((E)-3-(2-methoxyphenyl)allylidene)-2,5-dioxoimidazolidine-1,3-diyl)diacetate] | 4.28 ± 0.02 | 2.58 ± 0.01 | 389 | 1.94 ± 0.04 | decrease of AUC after irradiation [3]: 1.5%; decrease of AUC after irradiation [4]: 30.8%; percentage of photoproducts content ([4]; macrogol formulation): 11.0%
3 | 13980 | 295 | 290–335 nm | 295 | 122.34 | 301 | 88.19 | 83.31 | 103.50 | 47 to 49 | CCOC(=O)CN1C(=O)/C(=C/c2ccccc2)N(CC(=O)OCC)C1=O [Compound 3a, Diethyl 2,2′-((Z)-4-benzylidene-2,5-dioxoimidazolidine-1,3-diyl)diacetate] | 1.29 ± 0.09 | 0.16 ± 0.02 | 331 | 2.97 ± 0.45 | hypsochromic shift of λmax compared to N-monosubstituted derivatives [1]: 21 nm

Continued, compound first:

Row | Compound | εmax [1] [M⁻¹ cm⁻¹] | λmax [1] [nm] | Absorption Range [1] | λmax pre-irradiation [3] | % of initial AUC post-irradiation [3] [%] | λmax post-irradiation [3] | % of Initial AUC [4, 8] [%] | % of Initial SPFin vitro [4, 8] [%] | % of Initial UVA PF [4, 8] [%] | melting point [°C] | UVA PF [2, 6] | UVA/UVB Ratio [2, 6] | λc (critical wavelength) [2, 6] [nm] | SPFin vitro [2, 7] | also measured
4 | CCOC(=O)CN1C(=O)/C(=C/c2ccc(OC)cc2OC)N(CC(=O)OCC)C1=O [Compound 3d, Diethyl 2,2′-((Z)-4-(2,4-dimethoxybenzylidene)-2,5-dioxoimidazolidine-1,3-diyl)diacetate] | 17310 | 333 | 290–374 nm | 333 | 111.55 | 342 | 94.01 | 89.92 | 97.66 | 88 to 90 | 2.35 ± 0.03 | 1.63 ± 0.01 | 383 | 1.84 ± 0.02 | new photoproduct (besides photoisomer), relative peak area ([4]; macrogol formulation): no additional peaks besides the photoisomer
5 | CCOC(=O)CN1C(=O)/C(=C/c2ccc(OCC)cc2)N(CC(=O)OCC)C1=O [Compound 3c, Diethyl 2,2′-((Z)-4-(4-ethoxybenzylidene)-2,5-dioxoimidazolidine-1,3-diyl)diacetate] | 17010 | 321 | 290–367 nm | 321 | 119.42 | 329 | 85.29 | 88.73 | 86.59 | 44 to 46 | 2.46 ± 0.01 | 1.05 ± 0.03 | 370 | 2.49 ± 0.08 | new photoproduct (besides photoisomer), relative peak area ([4]; macrogol formulation): 2.8%
6 | CCOC(=O)CN1C(=O)N/C(=C\c2ccc(OC)cc2)C1=O [Compound 2b, Ethyl (Z)-2-(4-(4-methoxybenzylidene)-2,5-dioxoimidazolidin-1-yl)acetate] | 31920 | 334 | 290–372 nm | 334 | 95.67 | 341 | – | – | – | 178 to 179 | – | – | – | – | SPFin vitro [2, 9]: 3.20 ± 0.07; UVA PF [2, 9]: 4.29 ± 0.11; UVA/UVB Ratio [2, 9]: 1.20 ± 0.00; λc (critical wavelength) [2, 9]: 363 nm; improvement of the functional photostability ([4]; DMSO in formulation reduced from 48 to 4.8%): 30.2%; % of Initial AUC [4, 10]: 59.55%; % of Initial SPFin vitro [4, 10]: 57.19%; % of Initial UVA PF [4, 10]: 54.31%; % of Initial AUC [4, 11]: 35.28%; % of Initial SPFin vitro [4, 11]: 36.51%; % of Initial UVA PF [4, 11]: 24.13%; decrease of tested parameters (SPFin vitro, UVA PF, AUC) after irradiation ([4]; formulation with DMSO 48% (F3), extreme values): 75.9%
7 | O=C(O)CN1C(=O)N/C(=C\c2ccccc2)C1=O [Compound 5a, (Z)-2-(4-Benzylidene-2,5-dioxoimidazolidin-1-yl)acetic acid] | 27310 | 316 | 290–346 nm | – | – | – | – | – | – | 215 to 217 | – | – | – | – | half-life at 20 µM ([5]; pH 7.4, mouse liver microsomes 0.8 mg/mL, 20 µM compound, NADPH-regenerating system, 37 °C, read-out: t ½): 23.1 h; microsomal CLint at 20 µM ([5]; pH 7.4, mouse liver microsomes, calculated from t1/2): < 1 µL/min/mg; half-life at 20 µM ([5]; pH 7.4, mouse liver microsomes, read-out: t1/2): > 23 h

Reference: paper PMC6630718, “Discovery of Novel UV-Filters with Favorable Safety Profiles in the 5-Arylideneimidazolidine-2,4-dione Derivatives Group” (Molecules, 2019)
